{"source": "paper PMC8802628", "about": "“Selective activation of PFKL suppresses the phagocytic oxidative burst” (Cell, 2021)", "key": {"PFKL": {"target": "T1, PFKL (Homo sapiens, UniProt P17858)", "T1 construct": "made in house; host or cells: Sf9 insect cells (baculovirus, Bac-to-Bac)", "T1 sequence (P17858 1-780)": "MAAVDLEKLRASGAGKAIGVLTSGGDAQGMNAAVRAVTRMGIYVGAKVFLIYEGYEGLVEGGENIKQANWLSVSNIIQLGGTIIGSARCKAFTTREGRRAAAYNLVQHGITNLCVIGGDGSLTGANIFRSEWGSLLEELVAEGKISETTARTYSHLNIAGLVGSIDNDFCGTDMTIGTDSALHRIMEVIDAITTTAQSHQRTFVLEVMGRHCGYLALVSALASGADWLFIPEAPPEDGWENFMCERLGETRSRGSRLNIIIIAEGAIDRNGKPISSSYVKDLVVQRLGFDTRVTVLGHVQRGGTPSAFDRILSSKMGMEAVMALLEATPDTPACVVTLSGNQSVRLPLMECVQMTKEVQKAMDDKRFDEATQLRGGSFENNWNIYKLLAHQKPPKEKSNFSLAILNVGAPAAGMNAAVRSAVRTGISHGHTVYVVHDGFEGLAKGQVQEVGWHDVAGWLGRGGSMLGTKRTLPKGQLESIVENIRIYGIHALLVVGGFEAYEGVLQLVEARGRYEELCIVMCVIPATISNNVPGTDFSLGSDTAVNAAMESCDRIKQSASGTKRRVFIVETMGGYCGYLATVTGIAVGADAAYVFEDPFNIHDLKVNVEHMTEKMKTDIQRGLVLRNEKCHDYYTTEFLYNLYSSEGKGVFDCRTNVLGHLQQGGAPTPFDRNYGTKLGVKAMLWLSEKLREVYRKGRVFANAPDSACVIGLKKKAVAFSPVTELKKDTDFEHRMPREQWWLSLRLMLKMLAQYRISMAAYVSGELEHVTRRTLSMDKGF", "assay": "Recombinant PFKL activity assay (relief of ATP inhibition)", "format": "biochemical", "source_text": "Recombinant N-terminal His-tagged human PFKL (NP_002617), PFKM (NP_000280), and PFKP (NM_002627.4) were generated as described ([Webb et al., 2015], [2017]). Point mutants of PFK1 were generated using the QuikChange Lightning kit (Aligent).\nHis-tagged PFK1 was expressed and purified as described with slight modifications ([Webb et al., 2015], [2017]). Briefly, baculovirus was generated using the Bac-to-Bac Expression system (Invitrogen). PFK1 was expressed in 2-5 × 10^6 sf9 cells at a multiplicity of infection of two for 48 h. Cells were lysed in 20 mM HEPES, pH 7.5, 80 mM potassium phosphate, 1 mM 2-mercapentoethanol, 10% glycerol, 10 mM imidazole, and EDTA-free Protease Inhibitor Cocktail (Abcam) with a Dounce homogenizer. The soluble lysate was incubated with HisPur cobalt resin (ThermoFisher Scientific). The resin was washed with 5 bead volumes lysis buffer, 10 bead volumes lysis buffer containing 2 M NaCl, and 5 further bead volumes lysis buffer. PFK1 was eluted in lysis buffer containing 100 mM imidazole. Fractions containing protein were pooled, passed over a desalting column equilibrated in freezing buffer [20 mM HEPES pH 7.5, 1 mM DTT, 500 μM ammonium sulfate, 5% glycerol, 1 mM ATP, and 100 μM EDTA] and concentrated using an Amicon Ultracel-30K Centrifugal Filter Unit (MilliporeSigma). Protein was quantified using a Bradford Protein Assay kit (ThermoFisher Scientific), and aliquotes frozen in liquid nitrogen for storage at −80°C.\nPFK1 activity was determined using the rate of FBP production via an auxiliary enzyme assay adapted to a 96-well format ([Brüser et al., 2012]; [Webb et al., 2015]). The auxiliary enzymes aldolase, triosephosphate isomerase, and glycerol phosphate dehydrogenase were purchased from MilliporeSigma as ammonium sulfate slurries and desalted using an Amicon Ultracel-10K Centrifugal Filter Unit. For assays containing FBP, the rate of ADP production was determined using the auxiliary enzymes pyruvate kinase (PK) and lactate dehydrogenase (LDH) (MilliporeSigma) in a buffer containing 250 μM phosphoenolpyruvic acid, […] NADH, 50 mM HEPES pH 7.5, 100 mM KCl, 1 mM DTT, and effector concentrations as described in the text. The temperature was equilibrated to 25°C for 5 min before initiating the reaction 10 mM MgCl2. Absorbance at 340 nm was measured using a Varioskan LUX Multimode microplate reader (ThermoFisher). Kinetic parameters were generated by nonlinear regression analysis using Prism (GraphPad Software) and are the mean of a minimum of three measurements from two independent preparations of protein. One unit of activity was defined as the amount of enzyme that catalyzed the formation of 1 μmol of fructose 1,6-bisphosphate per min at 25°C. Assays for PFKM were performed at pH 7.0 due to the pH-dependence of ATP inhibition ([Trivedi and Danforth, 1966])."}, "[1]": {"test_system": "human peripheral blood neutrophils", "assay": "NETosis assay in human neutrophils (SYTOX Green, DNA area)", "format": "cell-based", "conditions": "for fold more potent than LDC7559, inhibition of NETosis: compared to LDC7559; for inhibition of PMA-induced NETosis: SAR analogs compared to LDC7559", "experimental": "Freshly purified neutrophils were plated at 6 × 10^3 cells/well in glass bottom 96-well plates (SensoPlate, Greiner Bio-One 82050-792) in the RPMI medium described above. Cells were pretreated with DMSO vehicle, 0.5 μM NA-11, 100 μM apocynin, 0.5 μM and 5 μM PALP, or 0.5 μM and 5 μM LDC7559 for 30 min, and then stimulated with 50 nM PMA, 1 μM f-MLP, 5 μg/mL cholesterol crystals, 10 μg/mL LPS, 25 μM nigericin, or 25 μM calcymicin (A23187) for 3 h (except in Figures S1A, 6A and S7C, where cells were stimulated for 4 h). Cells were fixed and permeabilized in 2.5% paraformaldehyde (PFA) and 0.02% Triton X-100 in PBS for 30 min. For quantification of NETosis, cells were stained with 150 nM SYTOX Green and imaged in a KEYENCE Fluorescence Microscope (KEYENCE, ZB-X800E) at 10 x magnification. For immunolabeling, fixed cells were blocked with 2% BSA for 1 h, and then stained with anti-CitH3 and anti-MPO antibodies at a dilution of 1/200 in 1% BSA in PBS. Images were taken at 60 x magnification using an ImageXpress Micro Confocal high-content imaging system (Molecular Devices).\nSemi-automated analysis of both phase and fluorescence images of SYTOX Green-stained neutrophils used a specialized MATLAB algorithm. Total cells were counted by scoring phase standard deviation and radial symmetry. NETosis was classified in cells by measuring the DNA area in the fluorescence image and comparing with a select internal training set for each experiment. Unstimulated cells and PMA-stimulated, […] cells served as negative controls. PMA-stimulated cells served as a positive control. NET-forming cells are presented as a percentage of total cells."}, "[2]": {"conditions": "pH 7.5, 3.1 mM ATP, 4 mM F6P, mean ± SEM, read-out: EC50, activation of PFKL wild type"}, "[3]": {"conditions": "PFKL wild type, pH 7.5, 225 μM ATP"}}, "note": "Values joined by “and” are separate entries in the source; they are usually repeats but may differ in a detail not shown here. Equal entries are not always repeated. Where two headings read alike, the source gives them in different places."}
{"smiles": "CC(=O)Nc1ccc2c(c1)OCc1cc(-c3ccccc3)nn1C2", "note": "[NA-5]", "values": [{"measurement": "EC50", "setting": "PFKL; [2]", "value": "19.2 ± 6.79", "unit": "nM"}, {"measurement": "fold more potent than LDC7559, inhibition of NETosis", "setting": "[1]", "value": "~ 10 fold"}]}
{"smiles": "COc1ccccc1-c1cc2n(n1)Cc1ccc(NC(C)=O)cc1OC2", "note": "[LDC7559, reference compound]", "values": [{"measurement": "EC50", "setting": "PFKL; [2]", "value": "66 ± 18.9", "unit": "nM"}, {"measurement": "inhibition of PMA-induced NETosis", "setting": "[1]; PMA", "value": "inhibited PMA-induced NETosis in a dose-dependent manner"}, {"measurement": "ability to inhibit NETosis (activity range)", "setting": "[1]; neutrophils", "value": "low-micromolar range"}, {"measurement": "spontaneous NETosis", "setting": "[1]; no stimulus", "value": "did not prevent spontaneous NETosis"}]}
{"smiles": "O=C(CO)[C@@H](O)[C@H](O)[C@H](O)COP(=O)(O)O", "note": "[F6P, fructose 6-phosphate]", "values": [{"measurement": "Vmax,F6P", "setting": "PFKL; [3]", "value": "13.28 ± 1.69 micromoles FBP per minute per milligram PFK1"}, {"measurement": "hF6P (Hill coefficient)", "setting": "PFKL; [3]", "value": "3.16 ± 0.89"}]}
{"smiles": "CC(=O)Nc1ccc2c(c1)OCc1cc(-c3ccccc3C#CCCCO)nn1C2", "note": "[NA-11]", "values": [{"measurement": "EC50", "setting": "PFKL; Control (ligand series), pH 7.5, 4.0 mM F6P, 3.1 mM ATP, read-out: EC50, NA-11", "value": "12 ± 2.73", "unit": "nM"}, {"measurement": "Vmax", "setting": "PFKL; NA-11 titration with 50 μM AMP, pH 7.5, 4.0 mM F6P, 3.1 mM ATP", "value": "18.11 ± 1.23 μmoles FBP per min per mg PFK1"}, {"measurement": "Vmax", "setting": "PFKL; NA-11 titration with 200 μM FBP, pH 7.5, 4.0 mM F6P, 3.1 mM ATP", "value": "21.31 ± 2.44 μmoles FBP per min per mg PFK1"}, {"measurement": "Vmax", "setting": "PFKL; NA-11 titration, Control, pH 7.5, 4.0 mM F6P, 3.1 mM ATP", "value": "18.19 ± 1.29 μmoles FBP per min per mg PFK1"}, {"measurement": "EC50", "setting": "PFKL; pH 7.0, 4.0 mM F6P, 3.1 mM ATP, mean ± s.e.m., read-out: EC50, NA-11", "value": "74 ± 20.9", "unit": "nM"}, {"measurement": "EC50", "setting": "PFKL; pH 7.5 (pH series), 4.0 mM F6P, 3.1 mM ATP, mean ± s.e.m., read-out: EC50, NA-11", "value": "21.8 ± 6.21", "unit": "nM"}, {"measurement": "EC50", "setting": "PFKL; [2]", "value": "14 ± 2.91", "unit": "nM"}, {"measurement": "EC50", "setting": "PFKL; pH 8.0, 4.0 mM F6P, 3.1 mM ATP, mean ± s.e.m., read-out: EC50, NA-11", "value": "4.11 ± 0.92", "unit": "nM"}, {"measurement": "EC50", "setting": "PFKL; with 50 μM AMP, pH 7.5, 4.0 mM F6P, 3.1 mM ATP, read-out: EC50, NA-11", "value": "12.3 ± 3.38", "unit": "nM"}, {"measurement": "EC50", "setting": "PFKL; with 200 μM FBP, pH 7.5, 4.0 mM F6P, 3.1 mM ATP, read-out: EC50, NA-11", "value": "12 ± 6.99", "unit": "nM"}, {"measurement": "NOX2-dependent NETosis induced by fMLP, LPS, and cholesterol crystals", "setting": "[1]; 0.5 μM, 4 h stimulation", "value": "inhibited NOX2-dependent NETosis"}, {"measurement": "inhibition of PMA-induced NETosis", "setting": "[1]; PMA", "value": "inhibiting NOX2-dependent NETosis induced by PMA"}, {"measurement": "fold more potent than LDC7559, inhibition of NETosis", "setting": "[1]", "value": "~ 1,000 fold and 1,000 fold"}, {"measurement": "IC50", "setting": "[1]; human PMNs, PMA, read-out: IC50, inhibition of PMA-induced NETosis", "value": "4 ± 0.5", "unit": "nM"}]}
